# Results taken from patent US4816247A, “Emulsion compositions for administration of sparingly water soluble ionizable hydrophobic drugs” (American Cyanamid Company, priority 1985, dated 1989).
# Entries after “also recorded” stand apart in the source; their conditions may differ. Structures can show the parent of a compound that is named as a salt.
# How the values were obtained:
# [1] = assay type: physicochemical
# Protocol: (§1) Because the antiarthritic triazine compound is a base, organic acids as counter-ions were studied to improve drug solubility. […] Additional drug complexes were prepared with various organic and inorganic acids. […] The inherent insolubility of the drug appears to be responsible, to some extent, for the preceding results. In order to overcome the drug insolubility problem one of the objectives considered was to design a dosage form which would improve drug absorption when given by intravenous, intramuscular or intra-articular injection.
# [2] = Absorption and excretion of antiarthritic triazine compound, candidate dosage forms; settings: in vivo
# Protocol: as §1
# [3] = commercial product solution; cited from earlier work
# [4] = system: soft tissues / vein; settings: cited from earlier work
# [5] = system: marginal ear vein of rabbits; experiment: Peripheral vein irritation, intravenous infusion in marginal ear vein of rabbits, gross postmortem findings; assay type: in vivo, rabbit; parameters: key to External: Reddened / External: Yellow Deposit / Subcutaneous: Hemorrhage / Vascular Lumen: Yellow Deposit / External: Swollen / Subcutaneous: Edema / Subcutaneous: Yellow Deposit / Vascular Lumen: Blood Clot: +: Positive or present.; -: Negative or absent
# Protocol: (§2) The emulsin drug delivery system formulation of Emulsion 3 in Table III was tested in two species of animals, for peripheral vein irritation in order to determine the occurrence of local injection site adverse reactions. Also tested was a 1.0 mg/ml solution of bisantrene hydrochloride in 5% dextrose/water and a composition of the Emulsion 3 vehicle without bisantrene base. The two species of animals used were rabbits and dogs. The formulations were given intravenously in a peripheral vein using a Butterfly infusion set (Becton, Dickinson Co., Inc., Rutherford, N.J). The marginal ear vein was used in the rabbit and the saphenous or the cephalic vein of the leg was used in the dog.
# (§3) The formulations were given below by slow intravenous infusion using a Sage syringe pump (Sage Instruments, Orion Research Inc., Cambridge, Ma.) over a 2 hour period. The animals were restrained but unanesthetized during the infusion. After the infusion, the animals were returned to their cages and offered food. The animals were sacrificed one day after the infusion.
# (§4) At sacrifice, the infused vein was opened from the point of infusion and cardiad for several centimeters. […] FIGS. 3, 4 and 5 are comprised of representative photographs of the opened peripheral veins of dogs as hereinabove described and verify the findings stated above.
# [6] = system: peripheral vein of dogs; experiment: Peripheral vein irritation, intravenous infusion in peripheral vein of dogs, gross postmortem findings; assay type: in vivo, dog
# Protocol: as §2, §3, §4
# [7] = system: white blood cell counts; experiment: Group mean white blood cell counts, repeated intravenous infusion in dogs; assay type: in vivo; settings: dog
# Protocol: A comparison study of the group mean white blood cell counts (WBC×10^-3) was conducted separately for both the male and female animals in each group. The WBC counts of all animals were performed 7 days before dosing. Doses were administered on days 0, 21 and 42, whereas additional WBC counts on all animals were made on days 3, 7, 14, 20, 24, 28, 35, 41, 45, 49 and 56. The mean data from this test are recorded in Table VI and the group mean white blood cell counts for males and females are plotted separately in FIGS. 6 and 7 respectively.
# [8] = system: dogs; experiment: Clinical signs and injection site findings, repeated intravenous infusion in dogs; settings: dog
# [9] = Solubility of bisantrene in selected media and biological fluids (Table IB, FIGS. 1 and 2); assay type: physicochemical; settings: in words
# From the text: (§5) In serum and plasma, however due to increase in the pH the solubility drops considerably and this may be the reason that the drug precipitates at the point of infusion. […] Thus, if the drug can be kept in solution long enough to allow complete dilution in the entire blood volume, then the partitioning should take place without the intermediate precipitation.
# [10] = Solubility of bisantrene base and its oleate ion-pair in water, oils and emulsions; assay type: physicochemical; settings: in words
# From the text: Bisantrene base is insoluble in water, oils, oil phase of emulsions or preformed commercial, nutritional emulsions such as Intralipid® and Liposyn®. When Bisantrene base forms an ion-pair with oleic acid the solubility of Bisantrene increases in oils or oil phases of emulsions. Additionally, Bisantrene-oleate ion-pair acts as a surfactant, becomes part of an interfacial emulsion film and stabilizes the emulsion in vitro.
# [11] = system: erythrocytes; experiment: Partitioning of bisantrene in blood; assay type: in vitro ADME; settings: in words
# From the text: as §5
# [12] = system: plasma protein; settings: cited from earlier work
# [13] = rabbit, female, 2 h i.v. infusion
# [14] = rabbit, male, 2 h i.v. infusion
compound,measurement,setting,value
"CC(C)(C)C(C)(C)Nc1nc(NC(C)(C)C(C)(C)C)nc(N2CC3CCC(CC3)C2)n1 [Antiarthritic Triazine Compound, 3-[4,6-bis[(1,1-2,2-tetramethylpropyl)amino]-s-triazin-2-yl]-3-azabicyclo[3.2.2]nonane]",Solubility,[1],300 µg/mL
same,increase of solubility not more than,[1],500 to 1000 µg/mL
same,solubility in water,[1],insignificant solubility in water
same,parenteral absorption of the drug,[2],negligible
same,oral absorption,[2]; po,slightly better
"CC(C)NCC(O)COc1cccc2ccccc12 (racemic) [Inderal, propanolol]",Ambient Solution pH,[3],3.50
"COc1cccc2c1C(=O)c1c(O)c3c(c(O)c1C2=O)C[C@@](O)(C(=O)CO)C[C@@H]3O[C@H]1C[C@H](N)[C@H](O)[C@H](C)O1 [Adriamycin, Doxorubicin]",effect of extravasation into the soft tissues,[4]; intravenous administration in cancer therapy,massive tissue necrosis about the site of the attempted intravenous administration
C(=N\NC1=NCCN1)/c1c2ccccc2c(/C=N/NC2=NCCN2)c2ccccc12 [Bisantrene HCl],yellow or yellow-orange deposits in vascular-lumen,[5]; marginal ear vein of rabbits,yellow or yellow-orange deposits which result
same,External: Reddened,[5]; [13],+
same,External: Yellow Deposit,[5]; [13],+
same,Subcutaneous: Hemorrhage,[5]; [13],-
same,Vascular Lumen: Yellow Deposit,[5]; [13],+
same,External: Reddened,[5]; [14],-
same,External: Swollen,[5]; [14],-
same,External: Yellow Deposit,[5]; [14],-
same,Subcutaneous: Edema,[5]; [14],+
same,Subcutaneous: Hemorrhage,[5]; [14],-
same,Subcutaneous: Yellow Deposit,[5]; [14],-
same,Vascular Lumen: Blood Clot,[5]; [14],-
same,Vascular Lumen: Yellow Deposit,[5]; [14],+
same,"yellow-orange deposit in vascular-lumen, photograph of dog vein","[6]; FIGS. 3A, 3B, 4A, 5A, listed as bisantrene hydrochloride",clearly shows the yellow-orange deposits in the vascular-lumen
same,yellow or yellow-orange deposits in vascular-lumen,[6]; peripheral vein of dogs,yellow or yellow-orange deposits which result
same,group mean white blood cell count,"[7]; female, day 3, 10 mg/kg i.v. on days 0, 21, 42",6.3 WBC × 10^-3
same,group mean white blood cell count,"[7]; female, day 7, 10 mg/kg i.v. on days 0, 21, 42",4.5 WBC × 10^-3
same,group mean white blood cell count,"[7]; female, day 14, 10 mg/kg i.v. on days 0, 21, 42",8.6 WBC × 10^-3
same,group mean white blood cell count,"[7]; female, day 20, 10 mg/kg i.v. on days 0, 21, 42",10.5 WBC × 10^-3
same,group mean white blood cell count,"[7]; female, day 24, 10 mg/kg i.v. on days 0, 21, 42",5.1 WBC × 10^-3
same,group mean white blood cell count,"[7]; female, day 28, 10 mg/kg i.v. on days 0, 21, 42",4.1 WBC × 10^-3
same,group mean white blood cell count,"[7]; female, day 35, 10 mg/kg i.v. on days 0, 21, 42",13.0 WBC × 10^-3
same,group mean white blood cell count,"[7]; female, day 41, 10 mg/kg i.v. on days 0, 21, 42",9.7 WBC × 10^-3
same,group mean white blood cell count,"[7]; female, day 45, 10 mg/kg i.v. on days 0, 21, 42",5.1 WBC × 10^-3
same,group mean white blood cell count,"[7]; female, day 49, 10 mg/kg i.v. on days 0, 21, 42",6.0 WBC × 10^-3
same,group mean white blood cell count,"[7]; female, day 56, 10 mg/kg i.v. on days 0, 21, 42",13.2 WBC × 10^-3
same,group mean white blood cell count,"[7]; female, day -7 (before dosing)",10.1 WBC × 10^-3
same,group mean white blood cell count,"[7]; male, day 3, 10 mg/kg i.v. on days 0, 21, 42",7.0 WBC × 10^-3
same,group mean white blood cell count,"[7]; male, day 7, 10 mg/kg i.v. on days 0, 21, 42",3.7 WBC × 10^-3
same,group mean white blood cell count,"[7]; male, day 14, 10 mg/kg i.v. on days 0, 21, 42",11.1 WBC × 10^-3
same,group mean white blood cell count,"[7]; male, day 20, 10 mg/kg i.v. on days 0, 21, 42",10.8 WBC × 10^-3
same,group mean white blood cell count,"[7]; male, day 24, 10 mg/kg i.v. on days 0, 21, 42",5.1 WBC × 10^-3
same,group mean white blood cell count,"[7]; male, day 28, 10 mg/kg i.v. on days 0, 21, 42",2.9 WBC × 10^-3
same,group mean white blood cell count,"[7]; male, day 35, 10 mg/kg i.v. on days 0, 21, 42",13.5 WBC × 10^-3
same,group mean white blood cell count,"[7]; male, day 41, 10 mg/kg i.v. on days 0, 21, 42",11.3 WBC × 10^-3
same,group mean white blood cell count,"[7]; male, day 45, 10 mg/kg i.v. on days 0, 21, 42",5.3 WBC × 10^-3
same,group mean white blood cell count,"[7]; male, day 49, 10 mg/kg i.v. on days 0, 21, 42",3.3 WBC × 10^-3
same,group mean white blood cell count,"[7]; male, day 56, 10 mg/kg i.v. on days 0, 21, 42",12.8 WBC × 10^-3
same,group mean white blood cell count,"[7]; male, day -7 (before dosing)",11.3 WBC × 10^-3
same,clinical signs during the intravenous infusion,"[8]; 10 mg/kg, about 2 h infusion",none was apparent
same,swelling of the infused leg,"[8]; 10 mg/kg, about 2 h infusion",three
same,"local injection site deposits or binding of the drug, inflammation and phlebitis",[8]; conclusion of study,present
"C(=N\NC1=NCCN1)/c1c2ccccc2c(/C=N/NC2=NCCN2)c2ccccc12 [Bisantrene, bis(2-imidazolin-2-ylhydrazone)-9,10-anthracenedicarboxaldehyde]",solubility in whole blood,[9]; compared with plasma and serum,much greater than in plasma and serum
same,solubility characteristics of bisantrene,[9],"very sensitive to temperature changes, pH, and various solutes; also recorded: quite soluble in media useful as candidates for I.V. infusions such as normal saline and 5% dextrose"
same,"solubility in water, oils, oil phase of emulsions or preformed commercial nutritional emulsions",[10],insoluble
same,partitioning in blood,[11],eventually partitions into the erythrocytes which then serve as slow release carriers
"OCCOCCN1CCN(C(c2ccccc2)c2ccc(Cl)cc2)CC1 (centres unmarked) [Atarax, hydroxyzine]",Ambient Solution pH,[3],5.60
"CC(=O)Nc1ccc(OCC(O)CNC(C)C)cc1 (centres unmarked) [Eraldin, practolol]",Ambient Solution pH,[3],5.80
"C[C@H](N)[C@H](O)c1cccc(O)c1 [Aramine, metaraminol]",Ambient Solution pH,[3],3.60
C(=N\NC1=NCCN1)/c1c2ccccc2c(/C=N/NC2=NCCN2)c2ccccc12 [bisantrene dihydrochloride],problem likely to occur on intravenous injection,[4]; aqueous solution i.v. in mammals,chemical phlebitis
CCCCCCCC/C=C\CCCCCCCC(=O)O [oleic acid],molecules bound with one molecule of typical plasma protein,[12],nine
C(=NNC1=NCCN1)c1c2ccccc2c(C=NNC2=NCCN2)c2ccccc12 [Bisantrene-oleate ion-pair],solubility in oils or oil phases of emulsions,[10]; ion-pair with oleic acid,increases
